{"source": "patent US10406239B2", "about": "“Water-soluble docetaxel anticancer drug compound and preparation method and use thereof” (NANJING YOUYI MEDICAL TECHNOLOGY CO., LTD, priority 2015, dated 2019)", "key": {"[1]": {"system": "A549 human lung cancer xenografts", "experiment": "Growth inhibition on A549 human lung cancer xenografts in nude mice", "type": "in vivo, BALB/c nude mice", "conditions": "for Tumor inhibition rate: by tumor weight", "description": "(§1) The dose volume was 0.4 ml per 20 g, that is, the dose was 96 mg/kg. Then, the solution was diluted to other desired concentrations with 0.9% sodium chloride solution.\n(§2) Docetaxel injection, manufactured by Jiangsu Hengrui Pharmaceutical Co., Ltd., lot number: 15011215, specification: 0.5 ml: 20 mg. Formulation method: during use, 20 mg of docetaxel injection of the above specification was added to 1.5 ml of a solvent for the docetaxel injection to give a concentration of 10 mg/ml, and then fully diluted with saline to 1 mg/ml. The dose volume was 0.2 ml per 20 g, that is, the dose was 10 mg/kg.\n(§3) BALB/c nude mice, provided by Changzhou Kavens Laboratory Animal Co., Ltd. (Experimental Animal Production License: SOCK (Su) 2011-0003), age: 35-40 days, weight: 18-24 g, female.\nA549 human lung cancer xenografts in nude mice was established by inoculating human lung cancer A549 cell line subcutaneously to the axillary fossa of nude mice in an amount of 2*10^6 cells/animal.\n(§4) Human lung cancer A549 cell line in logarithmic growth phase was prepared into a cell suspension of 1×10^8 cells/ml under aseptic conditions and subcutaneously inoculated to the right axillary fossa of nude mice in a volume of 0.1 ml. The size of the xenograft in the nude mice was measured with a vernier caliper. After the xenografts grew to 100-300 mm^3, the animals were randomly grouped. The anti-tumor effect of the test agents was dynamically observed by measuring the size of the xenografts. The size of the xenografts was measured once every 3 days. The dose volume was 0.4 ml/20 g. Twenty-one days later, the mice were sacrificed and the tumors were surgically excised and weighed. The tumor volume (TV) is calculated by a formula below: TV=½×a×b^2\nThe relative tumor volume (RTV) is calculated based on the measurements by a formula: RTV=Vt/V0, where V0 is the measured tumor volume upon being caged (i.e., d0) and Vt is the tumor volume at each measurement. The evaluation index of the anti-tumor activity is relative tumor growth rate T/C (%), which is calculated by a formula below: […]\nin which TRTV is the RTV of the treatment group; and CRTV is the RTV of the negative control group.\nThe tumor inhibition rate is calculated by a formula below: […]\nTweight is the average tumor weight of the treatment group; and Cweight is the average tumor weight of the negative control group."}, "[2]": {"experiment": "Effect on body weight of nude mice with A549 human lung cancer xenografts", "type": "in vivo, BALB/c nude mice", "description": "as §1, §2, §3, §4"}, "[3]": {"conditions": "background statement; cited from earlier work"}, "[4]": {"conditions": "background statement; cited from earlier work", "remark": "listed apart in the source"}, "[5]": {"conditions": "Docetaxel 10 mg/kg, tail vein, once every 3 days, 7 doses, 21 d"}, "[6]": {"conditions": "Docetaxel 10 mg/kg, tail vein, once every 3 days, 3 d"}, "[7]": {"conditions": "Docetaxel 10 mg/kg, tail vein, once every 3 days, 6 d"}, "[8]": {"conditions": "Docetaxel 10 mg/kg, tail vein, once every 3 days, 9 d"}, "[9]": {"conditions": "Docetaxel 10 mg/kg, tail vein, once every 3 days, 12 d"}, "[10]": {"conditions": "Docetaxel 10 mg/kg, tail vein, once every 3 days, 15 d"}, "[11]": {"conditions": "Docetaxel 10 mg/kg, tail vein, once every 3 days, 18 d"}}, "note": "Marks after values point to notes of the source that are not given here.", "data": [{"smiles": "CC(=O)O[C@@]12CO[C@@H]1C[C@H](O)[C@@]1(C)C(=O)[C@H](O)C3=C(C)[C@@H](OC(=O)[C@H](O)[C@@H](NC(=O)OC(C)(C)C)c4ccccc4)C[C@@](O)([C@@H](OC(=O)c4ccccc4)[C@H]21)C3(C)C", "note": "[Docetaxel]", "values": [{"measurement": "Tumor volume", "setting": "[1]; Docetaxel 10 mg/kg group, 0 d (baseline)", "result": "100.58 ± 20.87", "unit": "mm^3"}, {"measurement": "Tumor inhibition rate", "setting": "[1]; Docetaxel 10 mg/kg, once every 3 days, 7 doses", "result": 72.16, "unit": "%"}, {"measurement": "Tumor inhibition rate", "setting": "[1]; Docetaxel 10 mg/kg, once every 3 days, 7 doses, listed as docetaxel", "result": 72.16, "unit": "%"}, {"measurement": "Tumor weight", "setting": "[1]; Docetaxel 10 mg/kg, once every 3 days, tumors excised after 21 days", "result": "0.33 ± 0.15", "unit": "g"}, {"measurement": "RTV (relative tumor volume)", "setting": "[1]; [5]", "result": "2.40 ± 0.99"}, {"measurement": "T/C (relative tumor growth rate)", "setting": "[1]; [5]", "result": 21.15, "unit": "%"}, {"measurement": "Tumor volume", "setting": "[1]; [5]", "result": "226.65 ± 56.45* mm^3"}, {"measurement": "T/C (relative tumor growth rate)", "setting": "[1]; Docetaxel 10 mg/kg, tail vein, once every 3 days, 7 doses, 21 d, listed as docetaxel", "result": 21.15, "unit": "%"}, {"measurement": "RTV (relative tumor volume)", "setting": "[1]; [6]", "result": "1.62 ± 0.37"}, {"measurement": "T/C (relative tumor growth rate)", "setting": "[1]; [6]", "result": 56.09, "unit": "%"}, {"measurement": "Tumor volume", "setting": "[1]; [6]", "result": "157.30 ± 26.48** mm^3"}, {"measurement": "RTV (relative tumor volume)", "setting": "[1]; [7]", "result": "1.49 ± 0.39"}, {"measurement": "T/C (relative tumor growth rate)", "setting": "[1]; [7]", "result": 41.39, "unit": "%"}, {"measurement": "Tumor volume", "setting": "[1]; [7]", "result": "147.47 ± 41.99** mm^3"}, {"measurement": "RTV (relative tumor volume)", "setting": "[1]; [8]", "result": "1.59 ± 0.47"}, {"measurement": "T/C (relative tumor growth rate)", "setting": "[1]; [8]", "result": 34.23, "unit": "%"}, {"measurement": "Tumor volume", "setting": "[1]; [8]", "result": "155.55 ± 44.12** mm^3"}, {"measurement": "RTV (relative tumor volume)", "setting": "[1]; [9]", "result": "2.15 ± 0.81"}, {"measurement": "T/C (relative tumor growth rate)", "setting": "[1]; [9]", "result": 33.77, "unit": "%"}, {"measurement": "Tumor volume", "setting": "[1]; [9]", "result": "208.93 ± 68.26** mm^3"}, {"measurement": "RTV (relative tumor volume)", "setting": "[1]; [10]", "result": "2.24 ± 0.43"}, {"measurement": "T/C (relative tumor growth rate)", "setting": "[1]; [10]", "result": 26.80, "unit": "%"}, {"measurement": "Tumor volume", "setting": "[1]; [10]", "result": "224.22 ± 57.63** mm^3"}, {"measurement": "RTV (relative tumor volume)", "setting": "[1]; [11]", "result": "1.87 ± 0.28"}, {"measurement": "T/C (relative tumor growth rate)", "setting": "[1]; [11]", "result": 19.30, "unit": "%"}, {"measurement": "Tumor volume", "setting": "[1]; [11]", "result": "186.80 ± 42.03** mm^3"}, {"measurement": "effect on the body weight of the experimental mice (in words)", "setting": "[2]; 10 mg/kg docetaxel, P<0.01", "result": "Extremely significant effect"}, {"measurement": "Initial body weight", "setting": "[2]; Docetaxel 10 mg/kg group, before dosing", "result": "22.50 ± 1.26", "unit": "g"}, {"measurement": "Final body weight", "setting": "[2]; Docetaxel 10 mg/kg, once every 3 days, end of study (21 days)", "result": "15.17 ± 0.90", "unit": "g"}, {"measurement": "oral bioavailability", "setting": "[3]", "result": "less than 8%"}, {"measurement": "intracellular concentration higher than that of paclitaxel", "setting": "[4]", "result": 3, "unit": "times"}]}]}
